Legend:
Format in all cases: toxicity, cell-based
[1] = test system: HEK-293T; experiment: Incucyte cell viability with HEK293T; conditions: human, 10 µM, compound concentration 10 uM
[2] = test system: Fibroblast; experiment: Incucyte cell viability with human fibroblast; conditions: 10 µM, compound concentration 10 uM
[3] = test system: U2OS; experiment: Incucyte cell viability with U2OS; conditions: human, 10 µM, compound concentration 10 uM
[4] = 0 h, replicate number 2, timepoint 0 hours
[5] = 6 h, replicate number 1, timepoint 6 hours
[6] = 6 h, replicate number 2, timepoint 6 hours
[7] = 12 h, replicate number 1, timepoint 12 hours
[8] = 12 h, replicate number 2, timepoint 12 hours
[9] = 18 h, replicate number 1, timepoint 18 hours
[10] = 18 h, replicate number 2, timepoint 18 hours
[11] = 24 h, replicate number 1, timepoint 24 hours
[12] = 0 h, replicate number 1, timepoint 0 hours
[13] = 24 h, replicate number 2, timepoint 24 hours
Further: filed as whole numbers so only -1 and 0 and 1 occur.

## COc1ccc(CCc2nc3cc(-c4c(C)noc4C)ccc3n2C[C@H](C)N2CCOCC2)cc1Cl
[1]; [4]
  Growth Rate: 1
[1]; [5]
  Growth Rate: 0
[1]; [6]
  Growth Rate: 1
[1]; [7]
  Growth Rate: 1
[1]; [8]
  Growth Rate: 0
[1]; [9]
  Growth Rate: 0
[1]; [10]
  Growth Rate: 1
[1]; [11]
  Growth Rate: 0
[2]; [12]
  Growth Rate: 0
[2]; [5]
  Growth Rate: 1
[2]; [6]
  Growth Rate: 0
[2]; [7]
  Growth Rate: 1
[2]; [9]
  Growth Rate: 1
[2]; [11]
  Growth Rate: 1
[3]; [12]
  Growth Rate: 1
[3]; [4]
  Growth Rate: 0
[3]; [5]
  Growth Rate: 0
[3]; [7]
  Growth Rate: 1
[3]; [9]
  Growth Rate: 1
[3]; [11]
  Growth Rate: 1

## COc1ccc2c(c1)O[C@H](c1ccc(OC)c(OC)c1)C[C@@H]2NC(=O)C1(c2ccc3c(c2)OC(F)(F)O3)CC1 [A-1596584]
[1]; [12]
  Growth Rate: 1
[1]; [4]
  Growth Rate: 0
[1]; [5]
  Growth Rate: 0
[1]; [7]
  Growth Rate: 0
[1]; [9]
  Growth Rate: 0
[1]; [11]
  Growth Rate: 0
[2]; [12]
  Growth Rate: 0
[2]; [7]
  Growth Rate: 1
[2]; [9]
  Growth Rate: 1
[2]; [10]
  Growth Rate: 0
[2]; [11]
  Growth Rate: 1
[2]; [13]
  Growth Rate: 0
[3]; [12]
  Growth Rate: 0
[3]; [6]
  Growth Rate: 0
[3]; [7]
  Growth Rate: 1
[3]; [8]
  Growth Rate: 0
[3]; [9]
  Growth Rate: 1
[3]; [10]
  Growth Rate: 0
[3]; [11]
  Growth Rate: 1

## COc1ccc2c(c1)O[C@@H](c1ccc(OC)c(OC)c1)C[C@H]2NC(=O)C1(c2ccc3c(c2)OC(F)(F)O3)CC1 [A-1596586]
[1]; [12]
  Growth Rate: 1
[1]; [4]
  Growth Rate: 0
[1]; [5]
  Growth Rate: 0
[1]; [7]
  Growth Rate: 0
[1]; [9]
  Growth Rate: 0
[1]; [11]
  Growth Rate: 0
[2]; [12]
  Growth Rate: 0
[2]; [9]
  Growth Rate: 1
[2]; [11]
  Growth Rate: 1
[3]; [12]
  Growth Rate: 0
[3]; [7]
  Growth Rate: 1
[3]; [9]
  Growth Rate: 1
[3]; [11]
  Growth Rate: 1

## O=C(N1CCS(=O)(=O)CC1)N1C[C@H](c2ccc(OC(F)(F)F)cc2)C[C@H](c2nc(C3CC3)no2)C1 [BAY-386]
[1]; [12]
  Growth Rate: 0
[1]; [5]
  Growth Rate: 1
[1]; [7]
  Growth Rate: 0
[1]; [8]
  Growth Rate: 1
[1]; [9]
  Growth Rate: 0
[1]; [11]
  Growth Rate: 0
[2]; [12]
  Growth Rate: 0
[2]; [6]
  Growth Rate: 0
[2]; [8]
  Growth Rate: 0
[2]; [10]
  Growth Rate: 0
[2]; [11]
  Growth Rate: 1
[2]; [13]
  Growth Rate: 0
[3]; [4]
  Growth Rate: 0
[3]; [5]
  Growth Rate: 0
[3]; [6]
  Growth Rate: 1
[3]; [7]
  Growth Rate: 0
[3]; [8]
  Growth Rate: 1
[3]; [9]
  Growth Rate: 0
[3]; [10]
  Growth Rate: 1
[3]; [11]
  Growth Rate: 0
[3]; [13]
  Growth Rate: 1

## NS(=O)(=O)c1cc(NC(=O)Cc2ccccc2)ccc1Oc1cccc(Cl)c1 [BAY-1797]
[1]; [12]
  Growth Rate: 0
[1]; [5]
  Growth Rate: 0
[1]; [6]
  Growth Rate: 1
[1]; [7]
  Growth Rate: 0
[1]; [8]
  Growth Rate: 1
[1]; [9]
  Growth Rate: 0
[1]; [11]
  Growth Rate: 0
[2]; [12]
  Growth Rate: 0
[2]; [8]
  Growth Rate: 1
[2]; [10]
  Growth Rate: 1
[2]; [11]
  Growth Rate: 1
[3]; [5]
  Growth Rate: 0
[3]; [7]
  Growth Rate: 1
[3]; [8]
  Growth Rate: 0
[3]; [9]
  Growth Rate: 0
[3]; [10]
  Growth Rate: 1
[3]; [11]
  Growth Rate: 0
[3]; [13]
  Growth Rate: 1

## Cn1cc(Cl)c2c(Oc3c(F)cc(Nc4cc(Cl)nc(N)n4)cc3F)ccnc21 [BAY-4900]
[1]; [12]
  Growth Rate: 0
[1]; [6]
  Growth Rate: 0
[1]; [8]
  Growth Rate: 0
[1]; [9]
  Growth Rate: 1
[1]; [10]
  Growth Rate: 0
[1]; [11]
  Growth Rate: 1
[1]; [13]
  Growth Rate: 0
[2]; [12]
  Growth Rate: 0
[2]; [6]
  Growth Rate: 0
[2]; [8]
  Growth Rate: 1
[2]; [10]
  Growth Rate: 1
[2]; [11]
  Growth Rate: 1
[3]; [12]
  Growth Rate: 1
[3]; [4]
  Growth Rate: 0
[3]; [5]
  Growth Rate: 1
[3]; [7]
  Growth Rate: 1
[3]; [9]
  Growth Rate: 0
[3]; [10]
  Growth Rate: 1
[3]; [11]
  Growth Rate: 1

## O=C(O)[C@H]1[C@H](Cn2nnc3ccccc3c2=O)CC[C@@H]1C(=O)c1ccc(OCCC2CCOCC2)cc1 [BAY-7598]
[1]; [12]
  Growth Rate: 0
[1]; [4]
  Growth Rate: 1
[1]; [6]
  Growth Rate: 1
[1]; [7]
  Growth Rate: 1
[1]; [9]
  Growth Rate: 1
[1]; [11]
  Growth Rate: 1
[2]; [12]
  Growth Rate: 0
[2]; [5]
  Growth Rate: 1
[2]; [7]
  Growth Rate: 1
[2]; [9]
  Growth Rate: 1
[2]; [11]
  Growth Rate: 1
[3]; [4]
  Growth Rate: 0
[3]; [5]
  Growth Rate: 1
[3]; [7]
  Growth Rate: 1
[3]; [8]
  Growth Rate: 0
[3]; [9]
  Growth Rate: 0
[3]; [10]
  Growth Rate: 1
[3]; [11]
  Growth Rate: 1

## C[C@H]1C[C@H]2[C@@H]3CCC4=CC(=O)C=C[C@]4(C)[C@@]3(Cl)[C@@H](O)C[C@]2(C)[C@@]1(O)C(=O)CO [BECLOMETHASONE]
[1]; [12]
  Growth Rate: 0
[1]; [5]
  Growth Rate: 1
[1]; [6]
  Growth Rate: 0
[1]; [7]
  Growth Rate: 1
[1]; [8]
  Growth Rate: 0
[1]; [9]
  Growth Rate: 1
[1]; [10]
  Growth Rate: 0
[1]; [11]
  Growth Rate: 1
[1]; [13]
  Growth Rate: 0
[2]; [12]
  Growth Rate: 0
[2]; [6]
  Growth Rate: 0
[3]; [12]
  Growth Rate: 0
[3]; [6]
  Growth Rate: 0
[3]; [7]
  Growth Rate: 1
[3]; [9]
  Growth Rate: 1
[3]; [11]
  Growth Rate: 1

— ChEMBL document CHEMBL4689842, “EUbOPEN Chemogenomics Library wave 1” (2021)
